Reference: ChEMBL document CHEMBL1125927, “New isomeric classes of topically active ocular hypotensive carbonic anhydrase inhibitors: 5-substituted thieno[2,3-b]thiophene-2-sulfonamides and 5-substituted thieno[3,2-b]thiophene-2-sulfonamides” (J Med Chem, 1991)
Values joined by “and” are separate entries in the source; they are usually repeats but may differ in a detail not shown here. Equal values may be shown once.

Legend:
Oryctolagus cuniculus [1] = species: Oryctolagus cuniculus; test: Intraocular pressure studies in hypertensive pigmented rabbits was performed; assay type: functional; note: test concentration or dose not given here
Oryctolagus cuniculus [2] = species: Oryctolagus cuniculus; test: Intraocular pressure studies were performed for the compound and compared with MK-927; assay type: functional; note: test concentration or dose not given here
Oryctolagus cuniculus [3] = species: Oryctolagus cuniculus; test: Intraocular pressure studies in normotensive pigmented rabbits was performed; assay type: functional; note: test concentration or dose not given here
Oryctolagus cuniculus [4] = species: Oryctolagus cuniculus; test: Intraocular pressure studies in normotensive albino rabbits was performed; assay type: functional; note: test concentration or dose not given here
Carbonic anhydrase 2 [5] = target: T1, Carbonic anhydrase 2 (Homo sapiens, UniProt P00918)
Description: In vitro binding affinity against human carbonic anhydrase II

Carbonic anhydrase 2 [6] = target: T1, Carbonic anhydrase 2; remark: listed apart in the source
Description: In vitro inhibitory activity against human carbonic anhydrase II

physchem [7] = test: physchem
Description: Dissociation constant (pKa)

physchem [8] = conditions: octanol/water, pH 7.4
Description: Partition coefficient (logD7.4)

Carbonic anhydrase 2 [9] = target: T1, Carbonic anhydrase 2; remark: listed apart in the source
Description: The compound was tested for in vitro inhibitory activity against human Carbonic anhydrase II

Carbonic anhydrase 2 [10] = target: T1, Carbonic anhydrase 2; remark: listed apart in the source
Description: The compound was tested for in vitro binding affinity against human Carbonic anhydrase II

Carbonic anhydrase 2 [11] = target: T1, Carbonic anhydrase 2; test: The compound was tested for in vitro inhibitory activity against human carbonic anhydrase II.; conditions: read-out: I50
Carbonic anhydrase 2 [12] = target: T1, Carbonic anhydrase 2; test: The compound was tested for in vitro inhibitory activity against human carbonic anhydrase II; conditions: read-out: I50

Description for Bos taurus: The binding to bovine iris and ciliary body pigment

Ki (Carbonic anhydrase 2 [5]) [nM] | IC50 (Carbonic anhydrase 2 [6]) [nM] | pKa (physchem [7]) | logD (physchem [8]) | Compound | Pigment binding (Bos taurus) [%] | also measured
 | 14 | 7.3 |  | NCc1cc2cc(S(N)(=O)=O)sc2s1 | 92 | 
3.4 | 4 | 4.23 | 0.111 | NS(=O)(=O)c1cc2cc(CN3CC[S+]([O-])CC3)sc2s1 |  | 
4.4 | 2.5 | 7.9 | 0.924 | CC(C)CNCc1cc2cc(S(N)(=O)=O)sc2s1 |  | 
 |  | 5.2 | -0.26 | CS(=O)(=O)CCNCc1cc2cc(S(N)(=O)=O)sc2s1.Cl | 56.8 | IC50 (Carbonic anhydrase 2 [9]): 4.5 nM; Ki (Carbonic anhydrase 2 [10]): 4.8 nM
36.8 |  | 8.28 | -0.0757 | CC(C)(C)NCc1cc2cc(S(N)(=O)=O)sc2s1 |  | IC50 (Carbonic anhydrase 2 [11]): 10 nM
 |  | 5.2 |  | CNC(=O)c1cc2cc(S(N)(=O)=O)sc2s1 |  | 
 |  | 5.75 | 1.17 | CC(C=O)N(Cc1cc2cc(S(N)(=O)=O)sc2s1)C(C)C=O.Cl (centres undefined) | 49.7 | IC50 (Carbonic anhydrase 2 [9]): 2.71 nM; Ki (Carbonic anhydrase 2 [10]): 1.49 nM
 | 4.9 | 7.52 | 0.204 | COCCCNCc1cc2cc(S(N)(=O)=O)sc2s1.Cl | 85.4 | 
 | 8.4 | 6.95 |  | NS(=O)(=O)c1cc2cc(CNC(CO)CO)sc2s1 |  | 
3.9 | 5 | 7 | 0.324 | COCCNCc1cc2cc(S(N)(=O)=O)sc2s1.Cl | 88 | 
 | 6.3 | 7.18 | -0.721 | NS(=O)(=O)c1cc2cc(CNCCO)sc2s1 |  | 
5.5 | 8.4 | 5.58 | -0.444 | C[S+]([O-])CCNCc1cc2cc(S(N)(=O)=O)sc2s1.Cl (centres undefined) | 67.5 | 
 | 2.2 | 3.75 |  | Cl.NS(=O)(=O)c1cc2cc(CNCC(F)(F)F)sc2s1 | 21.1 | 
2.6 | 2.27 | 5.5 | 0.23 | Cl.NS(=O)(=O)c1cc2cc(CN(CCO)CCO)sc2s1 | 71.8 | 
 | 3 | 8.02 | -0.538 | CNCc1cc2cc(S(N)(=O)=O)sc2s1.Cl | 92.1 | Ki (Carbonic anhydrase 2 [10]): 20.9 nM
 | 3 | 7.7 | -0.678 | NS(=O)(=O)c1cc2cc(CNCCCCO)sc2s1 |  | 

More lines, now with the values behind:

Compound | Ki (Carbonic anhydrase 2 [5]) [nM] | IC50 (Carbonic anhydrase 2 [6]) [nM] | pKa (physchem [7]) | logD (physchem [8]) | Pigment binding (Bos taurus) [%] | also measured
COC(=O)CSc1sccc1C1OCCO1 |  |  |  |  |  | IOP (Oryctolagus cuniculus [1]): -2.1 mmHg; IOP (Oryctolagus cuniculus [2]): -3.9 mmHg and -4.8 mmHg; IOP (Oryctolagus cuniculus [3]): -1.6 mmHg; IOP (Oryctolagus cuniculus [4]): -1.4 mmHg
COCCOCCN(CCOC)C(Cc1ccc(F)cc1)c1cc2cc(S(N)(=O)=O)sc2s1 (centres undefined) | 6.54 | 1.15 |  |  |  | 
NS(=O)(=O)c1cc2cc(C(=O)N(CCO)CCO)sc2s1 | 9 | 6.6 |  |  |  | 
OCc1cc2ccsc2s1 |  |  |  |  |  | IOP (Oryctolagus cuniculus [4]): -3 mmHg
NS(=O)(=O)c1cc2cc(C(=O)NCC(O)CO)sc2s1 (centres undefined) | 3.4 | 3.2 |  | -0.347 | 36.7 | 
O=Cc1cc2ccsc2s1 |  |  |  |  |  | IOP (Oryctolagus cuniculus [3]): -1.6 mmHg; IOP (Oryctolagus cuniculus [4]): -1.3 mmHg
C[S+]([O-])CCNC(=O)c1cc2cc(S(N)(=O)=O)sc2s1 (centres undefined) | 2.39 | 4.6 |  | -0.155 | 35.6 | 
Cl.NS(=O)(=O)c1cc2cc(CN3CCOCC3)sc2s1 | 1.1 | 3 | 5.25 | 1.17 | 42.9 | 
COCCN(CCNC(=O)c1cc2cc(S(N)(=O)=O)sc2s1)CCOC.Cl |  | 2.5 |  |  | 87.5 | 
COCCOCCN(CCOC)C(C)c1cc2cc(S(N)(=O)=O)sc2s1 (centres undefined) | 1.54 | 0.5 |  |  |  | 
COCCOCCN(CCOC)Cc1cc2cc(S(N)(=O)=O)sc2s1.Cl | 1.58 | 2.8 | 5.55 | 1.14 | 38.5 | IOP (Oryctolagus cuniculus [1]): -4.4 mmHg; IOP (Oryctolagus cuniculus [2]): -5.3 mmHg; IOP (Oryctolagus cuniculus [3]): -4.8 mmHg; IOP (Oryctolagus cuniculus [4]): -3.3 mmHg
CC(C)CNCc1cc2sc(S(N)(=O)=O)cc2s1.Cl | 2.7 | 2.8 | 7.6 | 1.24 | 86.5 | 
COCCOCCCNCc1cc2cc(S(N)(=O)=O)sc2s1.Cl |  | 6.5 | 7.4 | -0.137 | 87.5 | 
Cl.NS(=O)(=O)c1cc2cc(CNCCF)sc2s1 | 1.98 | 2.7 | 6.4 | 0.702 | 81.9 | 
Cl.NS(=O)(=O)c1cc2cc(C(=O)NCCN3CCSCC3)sc2s1 | 4.02 | 2.9 | 6.03 | 1.5 | 96.4 | 
COCCN(CCOC)Cc1cc2sc(S(N)(=O)=O)cc2s1.Cl | 0.95 | 2.5 | 5.48 | 1.56 | 41.4 | 
Cl.NS(=O)(=O)c1cc2cc(C(=O)NCCN3CCOCC3)sc2s1 | 6.38 | 2.9 | 5.8 | 0.587 | 91.6 | 
CNCc1cc2sc(S(N)(=O)=O)cc2s1.Cl | 11.8 | 3.2 | 7.65 | -0.495 | 87.3 | 
COCCOCCNC(C)c1cc2cc(S(N)(=O)=O)sc2s1.Cl (centres undefined) | 3.05 |  | 7.13 | 0.708 | 71.9 | IC50 (Carbonic anhydrase 2 [12]): 0.7 nM
NS(=O)(=O)c1cc2cc(CNCC3CC3)sc2s1 | 6.7 | 3.3 | 7.72 | 0.398 |  | 
COCCN(CCOC)Cc1cc2cc(S(N)(=O)=O)sc2s1.Cl | 1.34 | 4.2 | 5.34 | 1.58 | 50 | IOP (Oryctolagus cuniculus [2]): -4.6 mmHg; IOP (Oryctolagus cuniculus [3]): -4.1 mmHg; IOP (Oryctolagus cuniculus [4]): -2.6 mmHg
Cl.NS(=O)(=O)c1cc2cc(CN3CCSCC3)sc2s1 | 0.44 | 2.6 | 5.05 | 1.14 | 69.9 | 
COCCOCCN(CCOCCOC)Cc1cc2cc(S(N)(=O)=O)sc2s1.Cl |  |  | 5.72 | 0.992 | 40.3 | IC50 (Carbonic anhydrase 2 [9]): 3.95 nM; Ki (Carbonic anhydrase 2 [10]): 2.77 nM
CN(C)CCNC(=O)c1cc2cc(S(N)(=O)=O)sc2s1.Cl | 11 | 8.8 | 7.48 | -0.398 | 97 | 
COCCNCc1cc2sc(S(N)(=O)=O)cc2s1.Cl | 3.1 | 2.8 | 6.65 | 0.509 | 81.9 | 
